Experimental data: patent US7109338B2, “1,2-disubstituted 1,4-dihydro-4-oxoquinoline compounds” (priority 1999, dated 2006)
Values after ≈ are worked out from the molar mass of the structure shown.

Legend:
[1] = system: Poliovirus type 1 (Polio 1, Sabin); assay: microbe, parasite or virus in culture; format: cell-based
[2] = system: echovirus type 11 (Echo 11, Gregory); assay: In vitro anti-picornavirus activity (MTT), Echo 11; format: cell-based; details: HeLa-S3 cells, MTT method, 37° C.
[3] = system: coxsackievirus type A7 (CA7); assay: In vitro anti-picornavirus activity (MTT), CA7; format: cell-based; details: HeLa-S3 cells, MTT method, 37° C.
[4] = system: coxsackievirus type B4 (CB4,JVB); assay: In vitro anti-picornavirus activity (MTT), CB4; format: cell-based; details: HeLa cells, MTT method, 37° C.
HRV1A (E28) = assay: Anti-rhinovirus activity (MTT), HRV1A; format: cell-based, human rhinovirus; details: for IC50 HRV 1A: HeLa (Ohio strain) cells, MTT method, 33° C.
[5] = system: human rhinovirus type 1B (HRV 1B, B632); assay: Anti-rhinovirus activity (MTT), HRV1B; format: cell-based; details: HeLa (Ohio strain) cells, MTT method, 33° C.
HRV 2 (HGP) = assay: Anti-rhinovirus activity (MTT), HRV2; format: cell-based, human rhinovirus; details: HeLa (Ohio strain) cells, MTT method, 33° C.
HRV14 (1059) = assay: Anti-rhinovirus activity (MTT), HRV14; format: cell-based, human rhinovirus; details: HeLa (Ohio strain) cells, MTT method, 33° C.
HRV 89 (41617-Gallo) = assay: Anti-rhinovirus activity (MTT), HRV89; format: cell-based, human rhinovirus; details: HeLa (Ohio strain) cells, MTT method, 33° C.
HeLa cells = assay: Cytotoxicity (MTT, without virus), HeLa; details: HeLa, no virus, incubated for 4 days
HeLa-S3 cells = assay: Cytotoxicity (MTT, without virus), HeLa-S3; details: HeLa-S3, no virus, incubated for 4 days
HeLa (Ohio strain)cells = assay: Cytotoxicity (MTT, without virus), HeLa(Ohio); details: HeLa(Ohio), no virus, incubated for 4 days

Row | SMILES | IC50 Polio 1 [1] [µg/mL] | IC50 Echo 11 [2] [µg/mL] | IC50 CA7 [3] [µg/mL] | IC50 CB4 [4] [µg/mL] | IC50 HRV1B [5] [µg/mL] | IC50 HRV2 (HRV 2 (HGP)) [µg/mL] | IC50 HRV89 (HRV 89 (41617-Gallo)) [µg/mL] | Cytotoxicity CC50 HeLa (HeLa cells) [µg/mL] | Cytotoxicity CC50 HeLa-S3 (HeLa-S3 cells) [µg/mL] | Cytotoxicity CC50 HeLa(Ohio) (HeLa (Ohio strain)cells) [µg/mL] | also measured
1 | CCn1c2c(c(=O)c3cc(C(C)C)ccc31)C(O)c1ccccc1-2 (centres unmarked) [Compound C43, 5-Ethyl-8-isopropyl-11-hydroxy-5,10-dihydro-11H-indeno[1,2-b]quinolin-10-one] |  |  |  |  |  |  |  |  |  |  | IC50 ([1]; Enterovirus C, HeLa S3, read-out: IC50 Polio 1): 1.5 µg/mL (≈ 4.7 µM); IC50 ([2]; Enterovirus B): 0.54 µg/mL (≈ 1.69 µM); IC50 ([3]; Coxsackievirus): > 5 µg/mL; IC50 ([4]; Coxsackievirus): 2.9 µg/mL (≈ 9.08 µM); IC50 (HRV1A (E28); Human rhinovirus sp., HRV1A, HeLa, read-out: IC50 HRV 1A): > 5 µg/mL; IC50 ([5]; Human rhinovirus sp., HRV1B, read-out: IC50 HRV1B): 1.5 µg/mL (≈ 4.7 µM); IC50 (HRV 2 (HGP); Human rhinovirus sp., HRV2, read-out: IC50 HRV2): 0.67 µg/mL (≈ 2.1 µM); IC50 (HRV14 (1059); Human rhinovirus sp., HRV14, read-out: IC50 HRV 14): 2.5 µg/mL (≈ 7.83 µM); IC50 (HRV 89 (41617-Gallo); Human rhinovirus sp., HRV89, read-out: IC50 HRV89): 0.86 µg/mL (≈ 2.69 µM)
2 | COc1ccc2c(c1)Cc1c-2n(C)c2ccc(CC(C)C)cc2c1=O [Compound B11] | 0.45 (≈ 1.35 µM) | 0.28 (≈ 0.84 µM) | >2 | 1.6 (≈ 4.8 µM) | 0.36 (≈ 1.08 µM) | 0.34 (≈ 1.02 µM) | 0.31 (≈ 0.93 µM) | >2 | >2 | >2 | IC50 HRV 1A (HRV1A (E28)): 1.7 µg/mL (≈ 5.1 µM); IC50 HRV 14 (HRV14 (1059)): 0.78 µg/mL (≈ 2.34 µM)
3 | CCn1c2c(c(=O)c3cc(C(C)C)ccc31)C(=NOC)c1ccccc1-2 [Compound C49, 5-Ethyl-8-isoproypl-11-methoxyimino-5,10-dihydro-11H-indeno[1,2-b]quinolin-10-one] | 0.52 (≈ 1.5 µM) | 0.26 (≈ 0.751 µM) | 9.2 (≈ 26.6 µM) | 2.3 (≈ 6.64 µM) | 1.9 (≈ 5.48 µM) | 1.7 (≈ 4.91 µM) | 2.1 (≈ 6.06 µM) |  |  |  | IC50 HRV 1A (HRV1A (E28)): >10 µg/mL; IC50 HRV 14 (HRV14 (1059)): 5.5 µg/mL (≈ 15.9 µM)
4 | CCn1c(-c2ccn(C)c2)cc(=O)c2cc(C(C)C)ccc21 [Compound A307] | 0.79 (≈ 2.68 µM) | 0.34 (≈ 1.15 µM) | 1.9 (≈ 6.45 µM) | 1.3 (≈ 4.42 µM) | 0.83 (≈ 2.82 µM) | 0.39 (≈ 1.32 µM) | 0.86 (≈ 2.92 µM) | >20 | >20 | 18 | 
5 | CCn1c(-c2ccccc2)cc(=O)c2c(C)c(OCC(C)C)ccc21 [Compound A187] | 0.53 (≈ 1.58 µM) | 0.21 (≈ 0.626 µM) | 3.0 (≈ 8.94 µM) | 0.99 (≈ 2.95 µM) | 0.71 (≈ 2.12 µM) | 0.57 (≈ 1.7 µM) | 0.15 (≈ 0.447 µM) | >4 | >4 | >4 | 
6 | Cc1ccc(-c2cc(=O)c3cc(C(C)C)ccc3n2C)s1 [Compound A314] | 0.60 (≈ 2.02 µM) | 0.51 (≈ 1.71 µM) | 1.5 (≈ 5.04 µM) | 0.82 (≈ 2.76 µM) | 0.56 (≈ 1.88 µM) | 0.55 (≈ 1.85 µM) | 0.38 (≈ 1.28 µM) | 7.0 | >10 | >10 | 
7 | Cc1cc(-c2cc(=O)c3cc(C(C)C)ccc3n2C)ccc1OC(C)C [Compound A100] | 0.57 (≈ 1.63 µM) | 0.24 (≈ 0.687 µM) | 4.5 (≈ 12.9 µM) | 1.4 (≈ 4.01 µM) | 0.85 (≈ 2.43 µM) | 0.43 (≈ 1.23 µM) | 0.20 (≈ 0.572 µM) | >5 | >5 | >5 | 
8 | CCn1c(-c2ccccc2)c(C)c(=O)c2cc(NCC(C)C)ccc21.Cl [Compound A160] | 0.55 | 0.27 | 2.7 | 2.9 | 0.73 | 0.45 | 0.78 | >5 | >5 | >5 | 
